“And” between values parts separate entries of the source, which are not always exact repeats. Equal values may be shown once.

The source of these data is patent US8541373B2, “BChE albumin fusions for the treatment of cocaine abuse” (priority 2009, dated 2013).

Data set [1] deals with cocaine subjective effects. The data set can be described thus: Clinical study: subjective effects of cocaine (visual analogue scale). Format: in vivo, human. To be noted: humans. How it is done:
Subjective effects are measured using a computerized (21 CFR 11 validated) visual analogue scale (VAS). The time points for collection of subjective effects match with those for cocaine blood samples. The following set of VAS are: Drug Liking, Take Drug Again, Overall Drug Liking, High, Good Effects, Bad Effects, Feeling Rush, Desire for Cocaine, Feeling Anxious, Over-Stimulated, and Any Drug Effects.
PD sampling timepoints of VAS parameters after each cocaine dose are as follows: pre-dose, 2, 5, 10, 15, 30, 45, 60, 90, and 120 minutes post dose.

A short description of data set [2]: Animal observations in PK/PD study.
A short description of data set [3]: AlbuBChE antibodies and blood level after repeated AlbuBChE injections. The source says:
The monkeys trained to self-administer cocaine and also tested on the reinstatement procedure received a total of 4 injections of AlbuBChE. Blood was taken for determination of AlbuBChE antibodies after the first, second and fourth AlbuBChE injections.

As to AlbuBChE, the “VAS Bad Effects” value in data set [1] (following cocaine exposure) is listed as “reduces the feeling of “bad effects””. Besides, the “Duration of decreased desire to use cocaine” value in data set [1] (single administration) is listed as “up to one week”. In addition, in data set [1] (vs placebo), the “VAS Any Drug Effects” value is recorded as “reduces the reporting of “any drug effects.””, the “VAS Desire for Cocaine” value is “decreases the desire for cocaine”, the “VAS Drug Liking” value is “decreases cocaine liking” and the “VAS Feeling Anxious” value was “reduces feelings of anxiousness”. In addition, in data set [1] (vs placebo), the “VAS Feeling Rush” value is “decreases subjective feeling of “rush””, the “VAS Good Effects” value is listed as “decreases the subjective feeling of “good effects””, the “VAS High” value was “decreases the “high”” and the “VAS Over-Stimulated” value is given as “reduces feelings of being over-stimulated”. In data set [1] (vs placebo), the “VAS Overall Drug Liking” value was “decreases overall drug liking” and the “VAS Take Drug Again” value is given as “decreases the desire to take cocaine again”. Moreover, the “Cocaine-related observations (hyperactivity, increased respiratory rate with abdominal breathing)” value in data set [2] (pre-treatment 0.2 to 5 mg/kg, cocaine 1 mg/kg) is listed as “not observed for five days”. In data set [2] (single IM 0.2, 1 or 5 mg/kg), the “Clinical or cageside observations associated with AlbuBChE” value is reported as “no clinical or cageside observations” and the “Deaths during the study” value is recorded as “no deaths”. The Tolerability result in data set [2] (single IM dose of 0.2, 1 or 5 mg/kg) was “well tolerated”. Moreover, the AlbuBChE antibody levels result in data set [3] (following the first 2 injections, level of detection titer 20) is “below the level of detection”. Moreover, in data set [3] (following the fourth injection), the “AlbuBChE antibody titer, individual monkeys” value was 21 and 43 and 643. Also, the “Concentration of AlbuBChE in the blood, individual monkeys” value in data set [3] (one week following the AlbuBChE injection (fourth)) was 27 ng/mL and 55 ng/mL and 53 ng/mL.
